According to US11458175B2, “Composition comprising Lactobacillus plantarum CJLP475 strain and Lactobacillus plantarum CJLP243 strain and use thereof” (CJ CHEILJEDANG CORPORATION, priority 2018, dated 2022):

Legend:
sows = assay: Effect on immunity and colostrum of sows (IgA and IgG ELISA); type: in vivo; settings: vs control; for total IgA content in the serum of sows / total IgG content in the serum of sows: sows fed 10^10 to 10^11 CFU per day for 4 weeks
Experimental: An experiment was carried out in order to confirm the effect of the composition including the Lactobacillus plantarum CJLP475 strain and the Lactobacillus plantarum CJLP243 strain on the immunity and colostrum of sows when the composition was given to the sows, as follows: fifteen sows at 6 weeks before delivery in the same delivery period were selected randomly for each experimental group from the farms in which no PED virus had occurred. All of the sows used in the experiment were inoculated with the PED virus vaccine at 5 weeks and 2 weeks before delivery. The experiment was carried out in a total of four experimental groups, i.e., a control group in which no strain was fed, a group fed with CJLP475 alone, a group fed with CJLP243 alone, and a group fed with the composition including CJLP475 strain and CJLP243 strain. The feed was given in the form of common feeds without antibiotics, and water was given to be consumed freely. The Lactobacillus plantarum CJLP475 strain, the Lactobacillus plantarum CJLP243 strain, and the composition were produced in the form of freeze-dried powder and stored in a refrigerator, and then added on top of the feed when given to the sows so that each sow was given the feed in an amount of 10^10 to 10^11 CFU per day according to the treatment conditions. The sows were fed for a total of 4 weeks, and then the serum and colostrum of the sows were examined using an IgA and IgG ELISA kit.

[1] = tested on: porcine epidemic diarrhea virus (PEDV, SM98 or KPEDV9 strain); assay: Inhibitory effect against viral infection, PBMC culture broth on IPEC-J2 cells; type: cell-based; settings: PBMC culture broth on IPEC-J2, PED virus 100 TCID50/mL, 48 hours
Experimental: In order to measure the inhibitory effect of the composition including the Lactobacillus plantarum CJLP475 strain and the Lactobacillus plantarum CJLP243 strain against viral infection, porcine epidemic diarrhea virus (PEDV, SM98 or KPEDV9 strain) was prepared. Specifically, the virus was proliferated in Vero cells (CCL-81, kidney epithelial cells extracted from Chlorocebus), and MEM (Eagle's Minimum Essential Medium, Gibco BRL, USA), heat-inactivated 10% FBS (fetal bovine serum, v/v) and 1% (v/v) penicillin/streptomycin were as the media for culturing Vero cells. The Vero cells were incubated as a monolayer, washed twice with the media, and then all the solutions were removed. The virus was mixed at 0.1 MOI (multiplicity of infection) level in FBS-free MEM containing trypsin treated with 5 μg/ml TPCK (N-tosyl-L-phenylalanine chloromethyl ketone), treated with a minimal volume of the prepared culture cells, and then incubated in a 37° C. cell incubator containing 5% CO2 for 2 to 3 days.
The viral infection was determined by the formation of virus syncytia. […] Subsequently, the cells were added with a culture broth, in which the virus was subjected to a 2-fold serial dilution, and incubated for 24 to 48 hours to confirm viral infection, and the virus titer was calculated by the Reed & Muench method. […]

[2] = Antibiotic susceptibility test with antibiotic discs; settings: for resistance to antibiotics: ampicillin, clindamycin, gentamicin, kanamycin, erythromycin, ampicillin/sulbactam, chloramphenicol, streptomycin discs
Experimental: The Lactobacillus plantarum CJLP475 strain and the Lactobacillus plantarum CJLP243 strain were independently inoculated into a liquid MRS medium and subjected to a static culture at 37° C. for 24 hours. The thus-cultured bacteria were soaked in sterilized cotton swabs and smeared on a Mueller Hinton II solid medium (Difco), and then antibiotic discs were placed on the medium and incubated at 37° C. for 24 hours. Ampicillin, clindamycin, gentamicin, kanamycin, erythromycin, ampicillin/sulbactam, chloramphenicol, and streptomycin discs (Oxoid, UK) were used as antibiotic discs for the antibiotic test.

[3] = Acid-resistance assessment in artificial gastric juice medium (viable cell count); type: physicochemical; settings: artificial gastric juice medium (MRS with pepsin, pH 2.5), 37° C.
Experimental: An artificial gastric juice medium was prepared for the assessment of acid-resistance. More specifically, the artificial gastric juice medium was prepared by adding pepsin to a liquid MRS medium so as to adjust the pH to 2.5, followed by sterilization.
The strains of Example 1 were subjected to a static culture in a liquid MRS medium at 37° C. for 18 hours after the second subculture. 1% of the pre-incubated strains were inoculated to the artificial gastric juice medium and subjected to a static culture at 37° C., and the culture broth was sampled at 0 hour and 3 hours. The sampled culture broth was serial diluted and smeared on the solid MRS medium, and incubated at 37° C. for 48 hours to measure viable cell count.
(§1) In order to compare the acid-resistance and bile-resistance of the Lactobacillus plantarum CJLP475 strain and the Lactobacillus plantarum CJLP243 strain with those of the conventionally known strains, the acid-resistance and the bile-resistance of the Lactobacillus plantarum standard strain (KCCM12116) obtained from the Korean Culture Center of Microorganisms were assessed in the same manner as the above method.

[4] = Bile-resistance assessment in artificial bile medium (viable cell count); type: physicochemical; settings: artificial bile medium (MRS with 0.5% oxgall), 37° C.
Experimental: An artificial bile medium was prepared for the assessment of bile-resistance. More specifically, the artificial bile medium was prepared by adding 0.5% oxgall (bull bile) to a liquid MRS medium, followed by sterilization.
The strains of Example 1 were subjected to a static culture in a liquid MRS medium at 37° C. for 18 hours after the second subculture. 1% of the pre-incubated strains were inoculated to the artificial bile medium and subjected to a static culture at 37° C., and the culture broth was sampled at 0 hour and 24 hours. The sampled culture broth was serial diluted and smeared on the solid MRS medium, and incubated at 37° C. for 48 hours to measure viable cell count.
as §1

PED virus SM98 = assay: Inhibition of PED virus infection by immune cells of weaned piglets fed with the strains; type: in vivo; design: key: ++: Complete Inhibition; +: Partial Inhibition; −: Infected; settings: piglets fed 10^10 CFU per day for 3 weeks; for Inhibitory Effect against PED virus infection, mLN, SM98: immune cells of mesenteric lymph nodes; for Inhibitory Effect against PED virus infection, Spin, SM98: immune cells of spleen
Experimental: (§2) In order to confirm the effect of the composition including the Lactobacillus plantarum CJLP243 strain and the Lactobacillus plantarum CJLP475 strain on the immunity upon feeding, an experiment was carried out as follows:
(§3) Thirty-two 21-day-old weaned piglets were purchased and raised in a container farm for 3 weeks. The feed was given in the form of common crumble feeds without antibiotics. The composition including the Lactobacillus plantarum CJLP475 strain and the Lactobacillus plantarum CJLP243 strain was produced in the form of freeze-dried powder and stored in a refrigerator, and each piglet was given the feed in an amount of 10^10 CFU per day. After 3 weeks of oral administration, four piglets per treatment group were autopsied to collect blood and tissue samples so as to determine the effect of the composition on the immunity of the piglets.
(§4) In order to obtain immune cells from the spleen (Spin) and the mesenteric lymph nodes (mLN), the chopped tissue was powdered using a plunger of a syringe and a 70-micrometer cell strainer (BD Falcon), and then the cells were washed using an RPMI-1640 medium (Roswell Park Memorial Institute-1640, Gibco BRL, Grand Island, N.Y., USA). The remaining RBCs (red blood cells) were removed using an RBC lysis buffer (eBioscience, USA) prior to the last washing step. The immune cells collected after the last washing step were stained with Trypan blue and counted with a hemocytometer to be used.
(§5) For evaluation of the inhibitory effect against viral infection, PED virus was incubated in the same manner as in Example 6 described above, and the content thereof was measured. The immune cells obtained from the weaned piglets without feeding of the composition were used as a negative control.

PED virus KPEDV9 = assay: as above; type: in vivo; design: key: ++: Complete Inhibition; +: Partial Inhibition; −: Infected; settings: piglets fed 10^10 CFU per day for 3 weeks; for Inhibitory Effect against PED virus infection, mLN, KPEDV9: immune cells of mesenteric lymph nodes; for Inhibitory Effect against PED virus infection, Spin, KPEDV9: immune cells of spleen
Experimental: as §2, §3, §4, §5

[5] = tested on: red blood cells (sheep blood 5% agar); assay: Hemolytic activity on blood agar plates; type: cell-based; settings: 37° C., 24 hours
Experimental: […]-Hemolysis is a phenomenon in which phospholipids supplied by red blood cells are hydrolyzed by phospholipid enzymes produced from harmful bacteria, resulting in hemolysis of red blood cells. In order to determine the hemolytic activity of the Lactobacillus plantarum CJLP475 strain and the Lactobacillus plantarum CJLP243 strain, blood agar plates (sheep blood 5% agar, Hanilkomed, Korea) were used. The strains were streaked into the prepared blood agar plates and incubated at 37° C. for 24 hours to confirm the hemolysis.

piglets = assay: Immunity of piglets born from fed sows (IgA ELISA); type: in vivo; settings: 4 days after given colostrum, vs control
Experimental: In order to confirm the effect of the composition including the Lactobacillus plantarum CJLP475 strain and the Lactobacillus plantarum CJLP243 strain on the immunity of piglets born from the sows fed with the composition, an experiment was carried out using sows as in Example 9. Further, blood was collected from the piglets born from the sows 4 days after given colostrum to carry out an immunological analysis using an IgA ELISA kit.

| Substance | total IgA content in the serum of sows (sows) | total IgG content in the serum of sows (sows) | inhibitory effect against PED virus infection (microscopy, crystal violet) [1] | resistance to antibiotics [2] | Acid-Resistance Assessment, viable cell count 0 hr [3] | Acid-Resistance Assessment, viable cell count 3 hrs [3] | Bile-Resistance Assessment, viable cell count 0 hr [4] | Bile-Resistance Assessment, viable cell count 24 hrs [4] | Inhibitory Effect against PED virus infection, mLN, SM98 (PED virus SM98) | Inhibitory Effect against PED virus infection, Spin, SM98 (PED virus SM98) | Inhibitory Effect against PED virus infection, mLN, KPEDV9 (PED virus KPEDV9) | Inhibitory Effect against PED virus infection, Spin, KPEDV9 (PED virus KPEDV9) | hemolysis [5] | further results |
| --- | --- | --- | --- | --- | --- | --- | --- | --- | --- | --- | --- | --- | --- | --- |
| Lactobacillus plantarum CJLP243 | higher than those in the control group | higher than those in the control group | the virus infection was suppressed | not resistant | 4.5 × 10^7 CFU/mL | 4.4 × 10^7 CFU/mL | 3.2 × 10^7 CFU/mL | 7.3 × 10^8 CFU/mL | + | ++ | ++ | ++ | did not show hemolysis |  |
| Lactobacillus plantarum CJLP475 | higher than those in the control group | higher than those in the control group | the virus infection was suppressed | not resistant | 1.1 × 10^6 CFU/mL | 1.1 × 10^7 CFU/mL | 1.3 × 10^8 CFU/mL | 1.1 × 10^7 CFU/mL | ++ | ++ | ++ | ++ | did not show hemolysis | total IgA antibody titer in the colostrum (sows; sow colostrum during delivery): higher; total IgA content in the piglet serum (piglets): higher; Radius of Growth Inhibition Area Centered Around Antibiotics ([2]; Amp10 (Ampicillin) disc): 7.5 mm; Radius of Growth Inhibition Area Centered Around Antibiotics ([2]; C30 (Clindamycin) disc): 7 mm; Radius of Growth Inhibition Area Centered Around Antibiotics ([2]; CN120 (Gentamicin) disc): 5 mm; Radius of Growth Inhibition Area Centered Around Antibiotics ([2]; DA2 (Streptomycin) disc): 4.5 mm; Radius of Growth Inhibition Area Centered Around Antibiotics ([2]; E15 (Erythromycin) disc): 12 mm; Radius of Growth Inhibition Area Centered Around Antibiotics ([2]; K30 (Kanamycin) disc): 1.5 mm; Radius of Growth Inhibition Area Centered Around Antibiotics ([2]; S10 (Chloramphenicol) disc): 3.5 mm; Radius of Growth Inhibition Area Centered Around Antibiotics ([2]; SAM20 (Ampicillin/Sulbactam) disc): 7 mm |
